These results are taken from patent publication US20090286837A1, “Oxadiazole compounds as urokinase inhibitors” (priority 2005, published 2009).

For the experiment, the system named is BN-472 metastasizing breast tumor. Description: anti-tumor and anti-metastatic efficacy in the BN-472 metastasizing breast tumor model. In kind it is in vivo, brown Norwegian rats. The following applies: oral administration, daily doses of 0.2 or 2 mg/kg for three weeks, rats. The protocol: Experiments were carried out in order to investigate the anti-tumor efficacy and anti-metastatic efficacy of WX-771, WX-780 and WX-781.
The assay system used was the BN-472 metastasizing breast tumor in brown Norwegian rats. The kind of tumor tissue used is described, for example, in Kort et al., J. Natl. Cancer Inst. 72 (1984) 709-713. The rats were purchased from Harlan Nederland, NL 5960-AD Horst, the Netherlands, and were from six to eight weeks old with a weight of from 128 g to 170 g.
(4-Chlorobenzylsulfonyl-D-Ser-Gly-4-guanidinobenzyl-amide, hydrochloride salt) whose anti-tumor and anti-metastatic efficacy with subcutaneous injection had been disclosed was also studied for comparative purposes. For administration, 0.75 mg of WX-340 was dissolved in 20 ml of 5% (weight/volume) D-manitol in water and administered by subcutaneous injection in doses of 0.2 mg of drug/kg of rat.
A phosphatidylcholine vehicle was administered as control and was obtained by introducing 400 mg of soya phosphatidylcholine in 20 ml of phosphate-buffered saline and 400 μl of absolute ethanol. 0.8 ml of the suspension was administered orally to the rats as control.
WX-771 (7.5 mg) was introduced into 20 ml of a soya phosphatidylcholine solution as used also for the control. To administer 2 mg/kg, 0.8 ml of this suspension was administered orally. For a second group, the stock solution was diluted 1:10 to obtain a dose of 0.2 mg/kg when administering likewise 0.8 ml per rat.
WX-780 (7.5 mg) was introduced into 20 ml of a soya phosphatidylcholine suspension according to the above-described control suspension. To administer a dose of 2 mg/kg, the rats were given 0.8 ml of said suspension. To administer a dose of 0.2 mg/kg, the stock solution was diluted 1:10, with 0.8 ml per rat still being administered.
WX-781 (7.5 mg) was introduced into 20 ml of a soya phosphatidylcholine suspension according to the above-described control suspension. To administer a dose of 2 mg/kg, the rats were given 0.8 ml orally. To administer a dose of 0.2 mg/kg, the stock solution was diluted 1:10, with 0.8 ml/rat still being administered orally.

`C[C@@H](C(=O)NCc1ccc(Nc2noc(C(C)(C)C)n2)cc1)N(C)C(=O)[C@@H](COC(=O)C(C)(C)C)NS(=O)(=O)Cc1ccc(Cl)cc1` [WX-780]: the anti-metastatic action result is given as “significant” and the anti-tumor action entry is given as “significant”.

For `CC(C)(C)C(=O)OC[C@@H](NS(=O)(=O)Cc1ccc(Cl)cc1)C(=O)NCC(=O)NCc1ccc(Nc2noc(C(C)(C)C)n2)cc1` [WX-781], the anti-metastatic action entry is reported as “significant” and the anti-tumor action entry is recorded as “significant”.

On to `CC(C)(C)C(=O)OC[C@@H](NS(=O)(=O)Cc1ccc(Cl)cc1)C(=O)NCC(=O)NCc1ccc(NC(=N)NOC(=O)C(C)(C)C)cc1` [WX-771], for which the anti-metastatic action result is “significant” and the anti-tumor action entry was “significant”.
